For data set [1] the following is noted: Crystal; DTA.
Data set [2] in a line: Molar enthalpy of transition or fusion. Particulars: Crystal; DSC.

SMILES strings stand for the structures. ± gives the expanded uncertainty stated by the source.

Results on one compound are retold here after the NIST ThermoML archive (doi:10.1021/je060178m).

As for `NC(=O)c1ccccc1O` [2-hydroxybenzamide], in data set [1], the Normal melting temperature came out at 138.70 ± 1.1 °C. For the same compound, the “Molar enthalpy of transition or fusion” value in data set [2] was determined as 29 ± 0.8 kJ/mol.
